Patent US9642869B2, “Boronic acid derivatives and therapeutic uses thereof” (Rempex Pharmaceuticals, Inc., priority 2013, dated 2017)

Assays:
CTX-M-14 KP1005 [1] = assay type: cell-based
OXA-48 = OXA-48 (Klebsiella pneumoniae, UniProt Q6XEC0); assay: Inhibition of nitrocefin cleavage by purified enzyme (Ki); assay type: biochemical; conditions: nitrocefin reporter substrate, 10 min preincubation; read-out: Ki (OXA-48, NCF)
Outline: (§1)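 10 min RT preincubation, enzyme with inhibitor series in reaction buffer. Substrate nitrocefin; kinetic read 490 nm, 10 sec intervals, 10 min total.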

SHV-12 = SHV-12 (Klebsiella pneumoniae, UniProt P0AD64, E235K/G234S/L31Q); assay: as above; assay type: biochemical
SHV-12, sequence (P0AD64 22-286 L31Q/G234S/E235K): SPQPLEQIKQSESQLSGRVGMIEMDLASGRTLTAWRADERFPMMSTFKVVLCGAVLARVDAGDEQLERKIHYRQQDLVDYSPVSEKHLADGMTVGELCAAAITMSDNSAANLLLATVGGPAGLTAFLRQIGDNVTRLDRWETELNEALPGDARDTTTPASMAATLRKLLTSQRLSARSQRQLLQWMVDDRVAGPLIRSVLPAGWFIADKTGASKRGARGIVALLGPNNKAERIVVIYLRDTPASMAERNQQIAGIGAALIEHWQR
Outline: as §1

CTX-M-14 = CTX-M-14 (Escherichia coli, UniProt Q9L5C7); assay: as above; assay type: biochemical; conditions: nitrocefin reporter substrate, 10 min preincubation; read-out: Ki (CTX-M-14, NCF)
CTX-M-14, sequence (Q9L5C7 entry or part of it): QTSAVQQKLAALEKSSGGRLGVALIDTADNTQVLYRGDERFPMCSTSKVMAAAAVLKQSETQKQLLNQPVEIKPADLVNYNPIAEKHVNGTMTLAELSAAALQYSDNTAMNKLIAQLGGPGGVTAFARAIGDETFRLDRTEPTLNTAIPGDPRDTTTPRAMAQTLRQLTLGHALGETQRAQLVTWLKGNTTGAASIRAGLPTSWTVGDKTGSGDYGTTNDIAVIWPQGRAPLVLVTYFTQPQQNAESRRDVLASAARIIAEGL
Outline: as §1

P99 = P99 (Enterobacter cloacae, UniProt P05364); assay: as above; assay type: biochemical; conditions: nitrocefin reporter substrate, 10 min preincubation; read-out: Ki (P99, NCF)
P99, sequence (P05364 21-381): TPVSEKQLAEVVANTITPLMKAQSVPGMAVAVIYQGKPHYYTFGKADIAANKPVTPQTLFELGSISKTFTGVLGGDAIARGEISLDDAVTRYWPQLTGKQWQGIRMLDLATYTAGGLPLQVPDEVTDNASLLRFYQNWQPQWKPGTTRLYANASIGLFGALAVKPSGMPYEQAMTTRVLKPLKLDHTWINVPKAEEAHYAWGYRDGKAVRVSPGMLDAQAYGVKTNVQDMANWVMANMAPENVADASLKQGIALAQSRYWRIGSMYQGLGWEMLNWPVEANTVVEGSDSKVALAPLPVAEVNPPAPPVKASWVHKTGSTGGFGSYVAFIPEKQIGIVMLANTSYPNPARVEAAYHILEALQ
Outline: as §1

KPC-2 = KPC-2 (Klebsiella pneumoniae, UniProt Q9F663); assay: as above; assay type: biochemical; conditions: nitrocefin reporter substrate, 10 min preincubation; read-out: Ki (KPC-2, NCF)
KPC-2, sequence (Q9F663 25-293 limits assumed): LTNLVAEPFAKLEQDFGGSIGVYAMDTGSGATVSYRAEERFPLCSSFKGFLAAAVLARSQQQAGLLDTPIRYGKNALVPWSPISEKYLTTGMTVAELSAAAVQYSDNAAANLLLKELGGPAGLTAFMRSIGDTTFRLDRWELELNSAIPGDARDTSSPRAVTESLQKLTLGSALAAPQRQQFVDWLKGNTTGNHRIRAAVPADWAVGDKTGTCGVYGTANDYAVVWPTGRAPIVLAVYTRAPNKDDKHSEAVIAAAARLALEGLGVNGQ
Outline: as §1

TEM-10 ec302 [2] = assay: Aztreonam potentiation (MPC@4); assay type: cell-based; conditions: minimum BLI concentration inhibiting growth with 4 μg/mL aztreonam
CTX-M-15 KP1009 [3] = assay: Aztreonam potentiation (MPC@4); assay type: cell-based; conditions: minimum BLI concentration inhibiting growth with 4 μg/mL aztreonam
SHV-5 ec308 [4] = assay: Aztreonam potentiation (MPC@4); assay type: cell-based; conditions: minimum BLI concentration inhibiting growth with 4 μg/mL aztreonam
ECL1002 [5] = assay: Aztreonam potentiation (MPC@4); assay type: cell-based; conditions: minimum BLI concentration inhibiting growth with 4 μg/mL aztreonam
TEM-10 ec302 [6] = assay type: cell-based
CMY-6 EC1010 [7] = assay: Aztreonam potentiation (MPC@4); assay type: cell-based; conditions: minimum BLI concentration inhibiting growth with 4 μg/mL aztreonam
CTX-M-14 KP1005 [8] = assay: Aztreonam potentiation (MPC@4); assay type: cell-based; conditions: minimum BLI concentration inhibiting growth with 4 μg/mL aztreonam
CMY-6 EC1010 [9] = assay type: cell-based; conditions: minimum BLI concentration inhibiting growth with tigemonam at 4 μg/mL
KPC-2 KP1004 = assay: Aztreonam potentiation (MPC@4); assay type: cell-based; conditions: minimum BLI concentration inhibiting growth with 4 μg/mL aztreonam
CTX-M-15 KP1009 [10] = assay type: cell-based
OXA-48 KP1086 = assay: Biapenem potentiation (MPC@1); assay type: cell-based; conditions: minimum BLI concentration inhibiting growth with 1 μg/mL biapenem
Experimental: (§2) Biapenem was present in the test medium at 1 μg/mL. […] Table 3 summarizes the BLI potency of biapenem potentiation (MPC@1) for two strains overexpressing class A (KPC) and class D (OXA-48) carbapenemases. Biapenem MIC for each strain is also shown.

KP1004 KPC-2 = assay: Biapenem potentiation (MPC@1); assay type: cell-based; conditions: minimum BLI concentration inhibiting growth with 1 μg/mL biapenem
Experimental: as §2

ECL1002 [11] = assay type: cell-based; conditions: minimum BLI concentration inhibiting growth with tigemonam at 4 μg/mL
SHV-5 ec308 [12] = assay type: cell-based; conditions: minimum BLI concentration inhibiting growth with tigemonam at 4 μg/mL
[13] = Intravenous pharmacokinetics; assay type: in vivo; conditions: rat, plasma; rats, IV infusion over 0.5 hours, dose 20 mg/kg; read-out: Free Cl (converted)
Experimental: Rats (n=3 per compound) were administered by a single infusion. IV doses were infused over 0.5 hours via an indwelling femoral vein cannula. Plasma (˜0.3 mL) samples were collected from each rat at designated time points up to 24 hours. Blood samples were centrifuged within 5 min of collection at 12000 g for 5 min to obtain plasma. The plasma samples were stored at −80° C. until analyzed. Data were analyzed using WinNonlin.

OXA-48, sequence (Q6XEC0 23-265 limits assumed): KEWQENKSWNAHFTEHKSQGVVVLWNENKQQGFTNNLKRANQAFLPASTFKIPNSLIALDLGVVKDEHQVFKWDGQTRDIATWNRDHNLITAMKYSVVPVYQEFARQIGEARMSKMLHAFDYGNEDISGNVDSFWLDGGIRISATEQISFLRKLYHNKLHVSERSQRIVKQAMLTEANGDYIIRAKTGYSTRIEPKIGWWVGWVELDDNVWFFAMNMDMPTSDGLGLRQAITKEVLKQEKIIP

| Structure (SMILES) | TIG MPC4 CTX-M-14 KP1005 (CTX-M-14 KP1005 [1]) | Ki (OXA-48) | Ki (SHV-12) | Ki (CTX-M-14) | Ki (P99) | Ki (KPC-2) | AZT MPC4 TEM-10 ec302 (TEM-10 ec302 [2]) | AZT MPC4 CTX-M-15 KP1009 (CTX-M-15 KP1009 [3]) | AZT MPC4 SHV-5 ec308 (SHV-5 ec308 [4]) | AZT MPC4 ECL1002 (ECL1002 [5]) | AZT MPC4 CMY-6 EC1010 (CMY-6 EC1010 [7]) | AZT MPC4 CTX-M-14 KP1005 (CTX-M-14 KP1005 [8]) | TIG MPC4 CMY-6 EC1010 (CMY-6 EC1010 [9]) | AZT MPC4 KPC-2 KP1004 (KPC-2 KP1004) | TIG MPC4 CTX-M-15 KP1009 (CTX-M-15 KP1009 [10]) | BPM MPC1 OXA-48 KP1086 (OXA-48 KP1086) | BPM MPC1 KP1004 KPC-2 (KP1004 KPC-2) | TIG MPC4 ECL1002 (ECL1002 [11]) | TIG MPC4 SHV-5 ec308 (SHV-5 ec308 [12]) | other results |
| --- | --- | --- | --- | --- | --- | --- | --- | --- | --- | --- | --- | --- | --- | --- | --- | --- | --- | --- | --- | --- |
| Nc1nnc(C(=O)N[C@H]2Cc3cccc(C(=O)O)c3OB2O)o1 [Compound 20, (R)-3-(5-amino-1,3,4-oxadiazole-2-carboxamido)-2-hydroxy-3,4-dihydro-2H-benzo[e][1,2]oxaborinine-8-carboxylic acid] | Y (key: X: MIC of less than 1 μg/mL; Y: MIC of 1 μg/mL to 10 μg/mL; Z: MIC of greater than 10 μg/mL) | 1 to 10 nM | 1 to 10 nM | 1 to 10 nM | 1 to 10 nM | > 10 nM | Y (MIC of 1 μg/mL to 10 μg/mL) | X (MIC of less than 1 μg/mL) | X (MIC of less than 1 μg/mL) | X (MIC of less than 1 μg/mL) | X (MIC of less than 1 μg/mL) | Y (MIC of 1 μg/mL to 10 μg/mL) | X (MIC of less than 1 μg/mL) | Y (MIC of 1 μg/mL to 10 μg/mL) | X (key: X: MIC of less than 1 μg/mL; Y: MIC of 1 μg/mL to 10 μg/mL; Z: MIC of greater than 10 μg/mL) | Y (MIC of 1 μg/mL to 10 μg/mL) | X (MIC of less than 1 μg/mL) | X (MIC of less than 1 μg/mL) | X (MIC of less than 1 μg/mL) | TIG MPC4 TEM-10 ec302 (TEM-10 ec302 [6]): Y (key: X: MIC of less than 1 μg/mL; Y: MIC of 1 μg/mL to 10 μg/mL; Z: MIC of greater than 10 μg/mL) |
| O=C(CSC1CNC1)N[C@H]1Cc2cccc(C(=O)O)c2OB1O [Compound 22, (R)-3-(2-(azetidin-3-ylthio)acetamido)-2-hydroxy-3,4-dihydro-2H-benzo[e][1,2]oxaborinine-8-carboxylic acid] | Y (key: X: MIC of less than 1 μg/mL; Y: MIC of 1 μg/mL to 10 μg/mL; Z: MIC of greater than 10 μg/mL) | 1 to 10 nM | < 1 nM | 1 to 10 nM | 1 to 10 nM | > 10 nM | Y (MIC of 1 μg/mL to 10 μg/mL) | X (MIC of less than 1 μg/mL) | X (MIC of less than 1 μg/mL) | X (MIC of less than 1 μg/mL) | X (MIC of less than 1 μg/mL) | X (MIC of less than 1 μg/mL) | X (MIC of less than 1 μg/mL) | X (MIC of less than 1 μg/mL) | X (key: X: MIC of less than 1 μg/mL; Y: MIC of 1 μg/mL to 10 μg/mL; Z: MIC of greater than 10 μg/mL) | Y (MIC of 1 μg/mL to 10 μg/mL) | X (MIC of less than 1 μg/mL) | X (MIC of less than 1 μg/mL) | Y (MIC of 1 μg/mL to 10 μg/mL) | clearance [13]: 9.5 mL/min/kg |
